Values joined by “and” are separate entries in the source; they are usually repeats but may differ in a detail not shown here. Identical values can stand only once. Like-named read-outs stand apart in the source and are kept apart here.
Legend:
[1] = Chemical stability in DMSO stock solution (HPLC purity); format: physicochemical; conditions: mean±SD
Description: compounds were formulated in the solubilizing vehicle (5% DMSO/30% PEG400/65% […]
safety to the mice in the test.
6. What was the sample dissolved in for the in vitro and in vivo experiments? Response: The solvent information for the in vitro and in vivo experiments has been added in the revised manuscript. […]
7. Was the stability of the different compounds assessed and compared to Fedratinib? This is generally a critical point in macrocyclic studies. […]
in DMSO stock solution. Test compounds were incubated at room temperature and 60 ℃, respectively, for 72 h, and their purities (%) were determined using HPLC equipped with a CORTECS C18 column (4.6*50 mm, 2.7 μm particle size) and a UV/VIS detector setting of λ=210 nm. All co mpounds were eluted with the two solvent systems ([…] as organic phase in Method I and CH3OH as organic phase in Method II) at a flow rate of 0.3 ml/min. Each experiment repeated for three times and the results are represented as mean±SD.
Ta b e l R 1 . Comparison of chemical stability of different compounds at room temperature and 60 ℃, respectively.

SET-2 cells = assay: Cell proliferation assay (CCK-8), SET-2 cells; format: cell-based, human; conditions: for Inhibition (%): single wells, replicates 1 and 2
Experimental: (§1) The human erythroid leukemia (HEL 92.1.7) cells were purchased from the American Type Culture Collection (ATCC, TIB-180), and the human megakaryoblastic (SET2) cells were obtained from German Collection of Microorganisms and Cell Cultures (DSMZ, ACC 608). The anti-proliferative activities of compounds were evaluated using WST-8 cell counting kit-8 (Elabscience). HEL and SET-2 cells were seeded at 5000 cells/well in 70 μL RPMI-1640 medium (Hyclon) with 10% FBS (Gibco) to the 96-well plate and incubated overnight at 37 °C with 5% CO2. The compounds were serially diluted in RPMI-1640 medium, and cells were treated separately with 30 μL various concentrations of compounds for 72 h. The final DMSO concentration in the culture wells was 0.1%, which had no effect on the cell viability. Finally, 10 μL of CCK-8 solution was added into the wells. 4 h later, the absorbance values at 450 nm were recorded. IC50 values were determined using GraphPad Prism v8.3.0, and three parallel experiments were performed.

JAK2 = molecular target: T1, JAK2 (Homo sapiens, UniProt O60674); assay: JAK2 enzyme assay (Z'-LYTE kinase assay kit); format: biochemical
T1 construct: 0.05–0.42 ng JAK2, 2 μM peptide substrate (Tyr06)
Experimental: JAK kinase activity assays were performed using Z’-LYTETM kinase assay kit (Life Technologies, pv4122). […] The mixture was added into the 384-well microplate, shaken gently, and then incubated at room temperature for 1 h. Subsequently, 5 μL development solution was added to the well for incubating another 1 h. Finally, 5 μL stop reagent was added to stop the reaction. […] IC50 values were calculated using GraphPad Prism v8.0.3, and three parallel experiments were performed.

HEL cells = assay: Cell proliferation assay (CCK-8), HEL cells; format: cell-based, human; conditions: for Inhibition (%): single wells, replicates 1 and 2
Experimental: as §1

DSS-induced colitis mice = assay: In vivo efficacy study, DSS-induced colitis model; design: species or system male BALB/c mice; conditions: SASP 500 mg/kg; for Body weight (Fig. 6a) / DAI score (Fig. 6b): individual mice

T1 sequence (O60674 whole entry): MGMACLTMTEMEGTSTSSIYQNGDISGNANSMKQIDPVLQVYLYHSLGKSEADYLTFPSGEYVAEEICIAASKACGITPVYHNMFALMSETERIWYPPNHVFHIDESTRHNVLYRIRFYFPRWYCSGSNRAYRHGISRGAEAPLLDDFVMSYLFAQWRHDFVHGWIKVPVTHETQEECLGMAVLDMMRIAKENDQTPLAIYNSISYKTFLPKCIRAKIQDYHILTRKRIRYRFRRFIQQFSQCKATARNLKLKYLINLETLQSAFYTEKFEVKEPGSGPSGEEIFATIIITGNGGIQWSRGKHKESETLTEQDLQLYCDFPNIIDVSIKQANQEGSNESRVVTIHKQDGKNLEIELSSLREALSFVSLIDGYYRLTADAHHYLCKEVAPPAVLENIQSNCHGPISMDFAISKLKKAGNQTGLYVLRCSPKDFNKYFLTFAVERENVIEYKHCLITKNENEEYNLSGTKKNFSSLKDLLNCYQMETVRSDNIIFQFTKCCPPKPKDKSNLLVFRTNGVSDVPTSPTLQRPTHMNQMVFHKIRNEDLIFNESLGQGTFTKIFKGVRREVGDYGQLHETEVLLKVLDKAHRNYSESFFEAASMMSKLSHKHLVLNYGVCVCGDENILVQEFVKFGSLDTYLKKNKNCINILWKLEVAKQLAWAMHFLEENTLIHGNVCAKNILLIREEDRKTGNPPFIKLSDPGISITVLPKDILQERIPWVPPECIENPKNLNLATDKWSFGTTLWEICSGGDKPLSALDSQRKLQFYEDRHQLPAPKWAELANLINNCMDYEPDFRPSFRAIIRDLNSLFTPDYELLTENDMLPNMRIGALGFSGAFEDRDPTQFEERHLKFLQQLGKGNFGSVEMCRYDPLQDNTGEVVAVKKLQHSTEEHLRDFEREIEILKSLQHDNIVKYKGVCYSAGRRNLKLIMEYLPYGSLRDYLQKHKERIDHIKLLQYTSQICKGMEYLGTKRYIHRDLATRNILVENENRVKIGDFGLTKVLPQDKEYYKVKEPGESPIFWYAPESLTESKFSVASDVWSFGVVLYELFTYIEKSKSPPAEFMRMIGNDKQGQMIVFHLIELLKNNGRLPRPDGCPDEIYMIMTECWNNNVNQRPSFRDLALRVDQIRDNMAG

Cc1cnc2nc1Nc1cccc(c1)C(=O)N(C)Cc1cc(ccc1OCCN1CCCC1)N2 [Compound 2]
purity after incubation in DMSO stock solution ([1]; 60 ℃, 0 h): 99.59±0.13% | purity after incubation in DMSO stock solution ([1]; 60 ℃, 2 h): 99.60±0.06% | purity after incubation in DMSO stock solution ([1]; 60 ℃, 24 h): 100.00±0.00% | purity after incubation in DMSO stock solution ([1]; 60 ℃, 48 h): 99.61±0.01% | purity after incubation in DMSO stock solution ([1]; 60 ℃, 72 h): 99.43±0.09% | purity after incubation in DMSO stock solution ([1]; Room Temperature, 0 h): 99.65±0.05% | purity after incubation in DMSO stock solution ([1]; Room Temperature, 2 h): 99.65±0.05% | purity after incubation in DMSO stock solution ([1]; Room Temperature, 24 h): 100.00±0.00% | purity after incubation in DMSO stock solution ([1]; Room Temperature, 48 h): 99.99±0.01% | purity after incubation in DMSO stock solution ([1]; Room Temperature, 72 h): 99.50±0.06% | Inhibition (%) (SET-2 cells; SET-2 cell lines, 0.0977 μM): 7.592% and 1.623% and 1.518% and -0.378% and 0.918% and 6.534% | Inhibition (%) (SET-2 cells; SET-2 cell lines, 0.1953 μM): 8.325% and -1.100% and -4.241% and -2.322% and 3.294% and 8.909% | Inhibition (%) (SET-2 cells; SET-2 cell lines, 0.3906 μM): 0.681% and -1.309% and -10.209% and -2.322% and 6.965% and 5.562% | Inhibition (%) (SET-2 cells; SET-2 cell lines, 0.7813 μM): -8.429% and 1.100% and -6.440% and -0.270% and 5.886% and 6.102% | Inhibition (%) (SET-2 cells; SET-2 cell lines, 1.5625 μM): -4.869% and -5.916% and -2.880% and 1.998% and 4.914% and -0.162% | Inhibition (%) (SET-2 cells; SET-2 cell lines, 3.1250 μM, 3.125 µM): 4.031% and -0.576% and -2.984% and 1.674% and 9.233% and -1.350% | Inhibition (%) (SET-2 cells; SET-2 cell lines, 6.2500 μM, 6.25 µM): 8.744% and 16.702% and 4.555% and 8.801% and 8.153% and 7.613% | Inhibition (%) (SET-2 cells; SET-2 cell lines, 12.5000 μM, 12.5 µM): 20.471% and 17.330% and 11.885% and 18.953% and 16.793% and 14.741% | IC50 (SET-2 cells; SET-2 cell lines, single-replicate fits, read-out: IC50/μM (individual replicates), cellular antiproliferative activity): > 25 µM | IC50 (SET-2 cells; SET-2 cells, 72 h, mean ± SD, read-out: Cellular Antiproliferative Activity (IC50) SET-2): > 25 µM | IC50 (JAK2; JAK2, 25 μM ATP, mean ± SD, n = 3, read-out: Enzyme Inhibitory Activity (IC50)): 0.364 µM | IC50 (JAK2; JAK2 enzyme, mean of 3 replicates, read-out: IC50/μM mean, enzyme inhibitory activity): 0.364 µM | IC50 (JAK2; JAK2 enzyme, mean ± SD of 3 replicates, read-out: IC50/μM mean ± SD, enzyme inhibitory activity): 0.364 ± 0.007 µM | IC50 (JAK2; JAK2 enzyme, single-replicate fits (replicates 1-3), read-out: IC50/μM (individual replicates), enzyme inhibitory activity): 0.366 µM and 0.356 µM and 0.37 µM | Inhibition (%) (HEL cells; HEL cell lines, 0.0977 μM): 2.051% and -1.891% and 1.838% and 11.186% and -5.882% and -1.006% | Inhibition (%) (HEL cells; HEL cell lines, 0.1953 μM): 0.772% and 1.838% and 2.477% and 15.575% and -7.833% and -8.321% | Inhibition (%) (HEL cells; HEL cell lines, 0.3906 μM): 2.264% and 1.518% and 1.625% and 18.866% and -1.250% and -7.345% | Inhibition (%) (HEL cells; HEL cell lines, 0.7813 μM): 10.786% and 8.762% and 8.549% and 18.744% and 6.553% and -6.614% | Inhibition (%) (HEL cells; HEL cell lines, 1.5625 μM): 18.882% and 12.064% and 2.264% and 20.207% and 10.332% and -0.152% | Inhibition (%) (HEL cells; HEL cell lines, 3.1250 μM, 3.125 µM): 25.273% and 19.521% and 12.916% and 41.664% and 20.207% and 14.721% | Inhibition (%) (HEL cells; HEL cell lines, 6.2500 μM, 6.25 µM): 42.104% and 34.754% and 32.197% and 45.931% and 34.837% and 31.058% | Inhibition (%) (HEL cells; HEL cell lines, 12.5000 μM, 12.5 µM): 71.398% and 70.120% and 69.694% and 81.042% and 74.825% and 72.874% | IC50 (HEL cells; HEL cell lines, mean of 2 replicates, read-out: IC50/μM mean, cellular antiproliferative activity): 7.34 µM | IC50 (HEL cells; HEL cell lines, mean ± sd of 2 replicates, read-out: IC50/μM mean ± sd, cellular antiproliferative activity): 7.34 ± 0.44 µM | IC50 (HEL cells; HEL cell lines, single-replicate fits, read-out: IC50/μM (individual replicates), cellular antiproliferative activity): 7.03 µM and 7.65 µM | IC50 (HEL cells; HEL cells, 72 h, mean ± SD, read-out: Cellular Antiproliferative Activity (IC50) HEL): 7.34 ± 0.44 µM

O=C(O)c1cc(/N=N/c2ccc(S(=O)(=O)Nc3ccccn3)cc2)ccc1O [Salicylazosulfapyridine]
Body weight (Fig. 6a) (DSS-induced colitis mice; day 0): 22.7 and 23.7 and 19.3 and 23.6 and 21.6 and 22.9 and 21.7 (2×) | DAI score (Fig. 6b) (DSS-induced colitis mice; day 0): 0 | DAI score (Fig. 6b) (DSS-induced colitis mice; day 1): 0 (7×) and 1 | Body weight (Fig. 6a) (DSS-induced colitis mice; day 1, in g (unit assumed)): 23.2 and 23.6 and 22.1 and 24.5 and 21.4 and 22.4 and 22 and 22.5 | DAI score (Fig. 6b) (DSS-induced colitis mice; day 2): 0 (7×) and 1 | Body weight (Fig. 6a) (DSS-induced colitis mice; day 2, in g (unit assumed)): 23.3 | DAI score (Fig. 6b) (DSS-induced colitis mice; day 3): 1 (6×) and 0 (2×) | DAI score (Fig. 6b) (DSS-induced colitis mice; day 4): 4 and 2 and 1 (4×) and 3 and 0 | Body weight (Fig. 6a) (DSS-induced colitis mice; day 4, in g (unit assumed)): 22.3 and 22.4 and 22.1 and 23.7 and 20.4 and 22.9 and 21.3 and 22.8 | DAI score (Fig. 6b) (DSS-induced colitis mice; day 5): 4 and 2 (4×) and 1 (2×) and 6 | Body weight (Fig. 6a) (DSS-induced colitis mice; day 5, in g (unit assumed)): 20.8 and 20.9 and 21.8 and 22.6 and 19.7 and 21.4 and 20.2 and 21.2 | DAI score (Fig. 6b) (DSS-induced colitis mice; day 6): 5 (4×) and 7 and 3 and 1 (2×) | Body weight (Fig. 6a) (DSS-induced colitis mice; day 6, in g (unit assumed)): 19 and 19.1 and 21.1 and 21.3 and 18.6 and 19.3 and 19.2 and 20.2 | DAI score (Fig. 6b) (DSS-induced colitis mice; day 7): 8 and 6 and 1 and 4 and 5 (2×) and 3 and 2 | Body weight (Fig. 6a) (DSS-induced colitis mice; day 7, in g (unit assumed)): 16.8 and 17.9 and 20.5 and 20.7 and 18.1 and 17.6 and 17 and 18.6 | DAI score (Fig. 6b) (DSS-induced colitis mice; day 8): 2 (2×) and 5 and 1 (3×) and 0 (2×) | Body weight (Fig. 6a) (DSS-induced colitis mice; day 8, in g (unit assumed)): 16.9 and 16.6 and 19.6 and 19.9 and 16.5 and 17.3 and 18.4 and 19.2 | Body weight (Fig. 6a) (DSS-induced colitis mice; day 9): 18 (2×) and 17.2 and 19.6 and 20.6 and 15.7 and 19.4 and 20.8 | DAI score (Fig. 6b) (DSS-induced colitis mice; day 9): 0 (7×) and 1 | DAI score (Fig. 6b) (DSS-induced colitis mice; day 10): 2 (4×) and 1 (2×) and 3 and 0 | Body weight (Fig. 6a) (DSS-induced colitis mice; day 10, in g (unit assumed)): 17.1 and 16.7 and 19.2 and 21.8 and 17.6 and 20.2 and 22.1 | DAI score (Fig. 6b) (DSS-induced colitis mice; day 11): 0 (5×) and 1 (2×) | Body weight (Fig. 6a) (DSS-induced colitis mice; day 11, in g (unit assumed)): 17.6 and 16.3 and 19.7 and 21.9 and 19.1 and 19.8 and 22.6 | DAI score (Fig. 6b) (DSS-induced colitis mice; day 12): 0 | Body weight (Fig. 6a) (DSS-induced colitis mice; day 12, in g (unit assumed)): 19 and 17.1 and 20.3 and 22.2 and 19.5 and 21.5 and 22.4 | Body weight (Fig. 6a) (DSS-induced colitis mice; day 13, in g (unit assumed)): 18.8 and 17.7 and 20 and 23.6 and 20.2 and 21.5 and 22.6 | Body weight (Fig. 6a) (DSS-induced colitis mice; day 14, in g (unit assumed)): 19.5 and 18.6 and 19.8 and 24.4 and 21 and 22.1 and 22.5 | HE staining score (Fig. 6d) (DSS-induced colitis mice; individual colon tissues (n = 8)): 3 and 1 and 2

— article PMC10382584, “Macrocyclization of linear molecules by deep learning to facilitate macrocyclic drug candidates discovery” (Nature Communications, 2023)
